Experimental data taken from patent EP4810052A2, “HCRHR2 SELECTIVE POLYPEPTIDES” (Gubra A/S, priority 2023, dated 2026).
Marks after values point to notes of the source that are not given here. Starred links: 1 amine or outer side, 2 acyl side, 3 side chain; linkers in the order of their positions; H or OH if unused. Non-standard residues stand in square brackets, D forms with d. Residues, ends and D or L forms follow the SMILES beside them. Groups on a side chain read outwards from the residue. *: point of attachment. C20 diacid = O=C(O)CCCCCCCCCCCCCCCCCCC(=O)*; γGlu = O=C(O)[C@H](CCC(=O)[*:2])N[*:1]; NMeI = CC[C@H](C)[C@H](NC)C(=O)O; Nle = CCCC[C@H](N)C(=O)O; AEEA = NCCOCCOCC(=O)O; Aib = CC(C)(N)C(=O)O

What was measured:
[1] = Chemical stability of purified peptides (RP-UHPLC main peak purity loss); type: physicochemical; conditions: for Purity loss (RP-UPLC analysis) T14-T0 (%): 14 days; for Purity loss (RP-UPLC analysis) T28-T0 (%): 28 days; for Chemical stability at pH 7.5 after 14 days at 40°C (% degradation): pH 7.5, 14 days; for Chemical stability at pH 7.5 after 28 days at 40°C (% degradation): pH 7.5, 28 days
Summary of the method: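 Peptides at about 1.0 mg/ml in 50 mM phosphate buffer pH 7.5, or pH-adjusted for the pH series, were incubated at 40 °C for 14 and 28 days. Main-peak purity was taken as main-peak area over total area by RP-UHPLC (UV 215 nm, C8, 50 °C). Purity loss was calculated versus T0.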

PK in mice = type: in vivo; parameters: T½ / MRT: unit: h; conditions: for MRT / T½ / clearance / half-life / Cmax / Tmax: Mouse; for bioavailability / clearance / half-life / Cmax / Tmax: male, in vivo; for bioavailability: NMRI, mouse; for clearance / half-life / Cmax / Tmax: NMRI/RjHan; for half-life: read-out: T½ (converted)
Method: Lean male NMRI/RjHan mice were obtained from JanVier (JanVier Labs, France) at 6 weeks of age. The animals were single housed under a 12/12 h dark-light cycle, light off at 3 PM. Room temperature was controlled to 22°C ± 1°C, with 60 % ± 20% humidity. Animals had ad libitum access to regular rodent chow (Altromin 1324, Brogaarden, Denmark) and tap water.
After 2 weeks of acclimatization, the animals were randomized into treatment groups (n=9 per group) based on body weight. Animals were dosed IV with one peptide and SC with another peptide (15 or 50 nmol/kg) Plasma samples were collected for PK analysis at times 0.17, 1, 3, 6, 24, 30, 48, 72 and 96 hours post dosing in a sparse sampling design with 3 mice per group per timepoint. Plasma samples were analyzed using LC-MSMS and PK parameters were estimated by Non-Compartmental Analysis (NCA).

PK in rats = type: in vivo; parameters: T½ / MRT: unit not given here; conditions: for MRT / T½ / clearance / half-life / Cmax / Tmax: Rat; for clearance / half-life / Cmax / Tmax / bioavailability: male, in vivo; for clearance / half-life / Cmax / Tmax: Sprague Dawley (RJHan:SD); for half-life: read-out: T½ (converted); for bioavailability: Sprague Dawley, rat
Summary of the method: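 Lean male Sprague Dawley rats (n = 3 per group) got a two-peptide combination at 50 nmol/kg IV and SC. Plasma was sampled from 0.17 to 96 h post dose and analysed by LC-MSMS. PK parameters came from non-compartmental analysis.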

[2] = Effect on acute food intake in mice; type: in vivo; conditions: single subcutaneous dose
Summary of the method: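 Male NMRI mice (n=7-8 per group) were fasted from six hours before the dark phase. They received a single subcutaneous peptide dose one hour before dark onset. Hourly food intake was monitored for 72 h and expressed as percent reduction versus vehicle, analysed by one-way ANOVA with Dunnett's test.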

pCRHR1 = assay: cAMP potency, transiently transfected CHO-K1 cells, pCRHR1; type: cell-based, pig; conditions: transiently transfected CHO-K1, average n=3; read-out: Transient cell system EC50 (nM) pCRHR 1
Method: Selected peptides were tested for potency on different species (mouse, rat, porcine) using transiently transfected CHO-K1 cells using the general procedure.

| Structure (SMILES) | Purity loss (RP-UPLC analysis) T14-T0 (%) ([1]; pH 7.0, 40°C) | Purity loss (RP-UPLC analysis) T28-T0 (%) ([1]; pH 7.0, 40°C) | Purity loss (RP-UPLC analysis) T14-T0 (%) ([1]; pH 7.5, 40°C) | Purity loss (RP-UPLC analysis) T28-T0 (%) ([1]; pH 7.5, 40°C) | Chemical stability at pH 7.5 after 14 days at 40°C (% degradation) [1] [%] | Chemical stability at pH 7.5 after 28 days at 40°C (% degradation) [1] [%] | Purity loss (RP-UPLC analysis) T14-T0 (%) ([1]; pH 8.0, 40°C) | Purity loss (RP-UPLC analysis) T28-T0 (%) ([1]; pH 8.0, 40°C) | MRT (PK in mice) | T½ (PK in mice) | bioavailability (PK in mice; sc) [%] | clearance (PK in mice; iv, 15 nmol/kg i.v.) [mL/h/kg] | half-life (PK in mice; iv, 15 nmol/kg i.v.) [h] | Cmax (PK in mice; sc, 15 nmol/kg s.c.) [nM] | Tmax (PK in mice; sc, 15 nmol/kg s.c.) [h] | half-life (PK in mice; sc, 15 nmol/kg s.c.) [h] | MRT (PK in rats) | T½ (PK in rats) | clearance (PK in rats; iv, 50 nmol/kg i.v.) [mL/h/kg] | half-life (PK in rats; iv, 50 nmol/kg i.v.) [h] | further results |
| --- | --- | --- | --- | --- | --- | --- | --- | --- | --- | --- | --- | --- | --- | --- | --- | --- | --- | --- | --- | --- | --- |
| CCCC[C@H](NC(=O)[C@@H](NC(=O)[C@H](CCC(=O)O)NC(=O)C(C)(C)NC(=O)[C@H](CC(N)=O)NC(=O)[C@@H](NC(=O)[C@H](CCCCNC(=O)COCCOCCNC(=O)COCCOCCNC(=O)CC[C@H](NC(=O)CC[C@H](NC(=O)CCCCCCCCCCCCCCCCCCC(=O)O)C(=O)O)C(=O)O)NC(=O)[C@H](C)NC(=O)[C@H](CCC(N)=O)NC(=O)[C@H](CCC(=O)O)NC(=O)[C@H](CCCNC(=N)N)NC(=O)[C@H](C)NC(=O)[C@H](C)NC(=O)[C@H](CCCNC(=N)N)NC(=O)[C@H](C)NC(=O)[C@H](CCCNC(=N)N)NC(=O)[C@H](C)NC(=O)[C@H](CCC(N)=O)NC(=O)[C@H](CO)NC(=O)[C@H](CC(C)C)NC(=O)[C@H](CC(C)C)NC(=O)[C@@H](NC(=O)[C@H](CCC(N)=O)NC(=O)[C@H](CC(C)C)NC(=O)[C@H](CC(C)C)NC(=O)CNC(=O)[C@@H](NC(=O)[C@@H]1CCCN1C(=O)[C@@H](NC(=O)[C@H](CC(=O)O)NC(=O)[C@H](CC(C)C)NC(=O)[C@H](CO)NC(=O)[C@H](CC(C)C)NC(=O)[C@@H](NC(=O)[C@@H](NC)[C@@H](C)CC)C(C)C)C(C)C)[C@@H](C)CC)[C@@H](C)CC)[C@@H](C)O)[C@@H](C)CC)C(=O)N[C@@H](C)C(=O)N[C@@H](CCC(=O)O)C(=O)N[C@H](C(N)=O)C(C)C [SEQ ID NO: 215] (H-[NMeI]VLSLDVPIGLLQILLSQARARAAREQAK([AEEA-AEEA-γGlu-γGlu-C20 diacid])TN[Aib]EI[Nle]AEV-NH2) | 0.2 | -0.3 | 0.1 | -0.1 | -0.92 | 0.31 | -0.4 | -0.7 | 17.4 | 12.6 | 56 | 4 | 12.6 | 58 | 6 | 14.1 | 6.7 | 5.7 | 12 | 5.7 | Cmax (PK in rats; sc, 50 nmol/kg s.c.): 42 nM; Tmax (PK in rats; sc, 50 nmol/kg s.c.): 24 h; half-life (PK in rats; sc, 50 nmol/kg s.c.): 6.1 h; bioavailability (PK in rats; sc): 28%; % FI compared to vehicle, 24 h post-dosing ([2]; 30 nmol/kg): 38.67*** %; % FI compared to vehicle, 24 h post-dosing ([2]; 100 nmol/kg): 20.26*** %; % FI compared to vehicle, 24 h post-dosing ([2]; 300 nmol/kg): 10.31*** %; EC50 (pCRHR1): > 1000 nM; Solubility pH 6.5 (mg/ml): 19.6 mg/ml; Solubility pH 7.0 (mg/mL): 20.6 mg/mL; Solubility pH 7.5 (mg/mL): 17.7 mg/mL; Solubility pH 7.5 + phenol (mg/mL): 18.0 mg/mL; Solubility pH 7.5, target conc. =10 mg/mL (measured mg/mL): 12 mg/mL |
| CCCC[C@H](NC(=O)[C@@H](NC(=O)[C@H](CCC(=O)O)NC(=O)[C@H](C)NC(=O)[C@H](CC(N)=O)NC(=O)C(C)(C)NC(=O)[C@H](CCCCNC(=O)COCCOCCNC(=O)COCCOCCNC(=O)CC[C@H](NC(=O)CC[C@H](NC(=O)CCCCCCCCCCCCCCCCCCC(=O)O)C(=O)O)C(=O)O)NC(=O)[C@H](C)NC(=O)[C@H](CCC(N)=O)NC(=O)[C@H](CCC(=O)O)NC(=O)[C@H](CCCNC(=N)N)NC(=O)[C@H](C)NC(=O)[C@H](C)NC(=O)[C@H](CCCNC(=N)N)NC(=O)[C@H](C)NC(=O)[C@H](CCCNC(=N)N)NC(=O)[C@H](C)NC(=O)[C@H](CCC(N)=O)NC(=O)[C@H](CO)NC(=O)[C@H](CC(C)C)NC(=O)[C@H](CC(C)C)NC(=O)[C@@H](NC(=O)[C@H](CCC(N)=O)NC(=O)[C@H](CC(C)C)NC(=O)[C@H](CC(C)C)NC(=O)CNC(=O)[C@@H](NC(=O)[C@@H]1CCCN1C(=O)[C@@H](NC(=O)[C@H](CC(=O)O)NC(=O)[C@H](CC(C)C)NC(=O)[C@H](CO)NC(=O)[C@H](CC(C)C)NC(=O)[C@@H](NC(=O)[C@@H]1CCCN1)C(C)C)C(C)C)[C@@H](C)CC)[C@@H](C)CC)[C@@H](C)CC)C(=O)N[C@@H](C)C(=O)N[C@@H](CCC(=O)O)C(=O)N[C@H](C(N)=O)C(C)C [SEQ ID NO: 238] (H-PVLSLDVPIGLLQILLSQARARAAREQAK([AEEA-AEEA-γGlu-γGlu-C20 diacid])[Aib]NAEI[Nle]AEV-NH2) | -1.0 | -1.2 | -3.1 | -4.8 | -1.6 | -4.6 | -5.1 | -9.8 | 21.4 | 19.6 | 60 | 4.4 | 19.6 | 48 | 24 | 25.2 | 14.2 | 10.2 | 7 | 10.2 | Cmax (PK in rats; sc, 50 nmol/kg s.c.): 91 nM; Tmax (PK in rats; sc, 50 nmol/kg s.c.): 24 h; half-life (PK in rats; sc, 50 nmol/kg s.c.): 11 h; bioavailability (PK in rats; sc): 43%; % FI compared to vehicle, 24 h post-dosing ([2]; 30 nmol/kg): 29.73*** %; % FI compared to vehicle, 24 h post-dosing ([2]; 100 nmol/kg): 12.92*** %; % FI compared to vehicle, 24 h post-dosing ([2]; 300 nmol/kg): 7.94*** %; EC50 (pCRHR1): > 5000 nM; Solubility pH 6.5 (mg/ml): 20.4 mg/ml; Solubility pH 7.0 (mg/mL): 20.6 mg/mL; Solubility pH 7.5 (mg/mL): 18.0 mg/mL; Solubility pH 7.5 + phenol (mg/mL): 17.9 mg/mL; Solubility pH 7.5, target conc. =10 mg/mL (measured mg/mL): 11 mg/mL |
